Data: the kinase profiling compilation of Christmann-Franck et al. (2016)

Key:
Assay in all cases: KINOMEscan competition binding
Conditions in all cases: compound 10.0 µM
ACVR2A (human) = ACVR2A (human) (UniProt P27037)
ADCK3 (human) = ADCK3 (human) (UniProt Q8NI60)
AKT2 (human) = AKT2 (human) (UniProt P31751)
AURKB (human) = AURKB (human) (UniProt Q96GD4)
CAMK2B (human) = CAMK2B (human) (UniProt Q13554)
CDC2L2 (human) = CDC2L2 (human) (UniProt Q9UQ88)
CDC42BPB (human) = CDC42BPB (human) (UniProt Q9Y5S2)
CDK3 (human) = CDK3 (human) (UniProt Q00526)
CLK2 (human) = CLK2 (human) (UniProt P49760)
DAPK2 (human) = DAPK2 (human) (UniProt Q9UIK4)
DDR2 (human) = DDR2 (human) (UniProt Q16832)
DYRK1B (human) = DYRK1B (human) (UniProt Q9Y463)
ERBB2 (human) = ERBB2 (human) (UniProt P04626)
ERBB4 (human) = ERBB4 (human) (UniProt Q15303)
FGFR3 (human) = FGFR3 (human) (UniProt P22607)
FGR (human) = FGR (human) (UniProt P09769)
FRK (human) = FRK (human) (UniProt P42685)
HIPK1 (human) = HIPK1 (human) (UniProt Q86Z02)
LATS1 (human) = LATS1 (human) (UniProt O95835)
LIMK2 (human) = LIMK2 (human) (UniProt P53671)
MAP3K5 (human) = MAP3K5 (human) (UniProt Q99683)
MAPK1 (human) = MAPK1 (human) (UniProt P28482)
MAPK14 (human) = MAPK14 (human) (UniProt Q16539)
MAPK15 (human) = MAPK15 (human) (UniProt Q8TD08)
MAPKAPK5 (human) = MAPKAPK5 (human) (UniProt Q8IW41)
MST4 (human) = MST4 (human) (UniProt Q9P289)
PHKG1 (human) = PHKG1 (human) (UniProt Q16816)
PIK3CD (human) = PIK3CD (human) (UniProt O00329)
PKN2 (human) = PKN2 (human) (UniProt Q16513)
PRKD1 (human) = PRKD1 (human) (UniProt Q15139)
PRKG1 (human) = PRKG1 (human) (UniProt Q13976)
RET (human) = RET (human) (UniProt P07949)
RPS6KA6 KD1 (human) = RPS6KA6 KD1 (human) (UniProt Q9UK32)
RPS6KA6 KD2 (human) = RPS6KA6 KD2 (human) (UniProt Q9UK32)
SRMS (human) = SRMS (human) (UniProt Q9H3Y6)
SRPK3 (human) = SRPK3 (human) (UniProt Q9UPE1)
TGFBR1 (human) = TGFBR1 (human) (UniProt P36897)
TLK2 (human) = TLK2 (human) (UniProt Q86UE8)
ULK2 (human) = ULK2 (human) (UniProt Q8IYT8)
ULK3 (human) = ULK3 (human) (UniProt Q6PHR2)

Sequence of ULK2 (human) (Q8IYT8 whole entry, looked up): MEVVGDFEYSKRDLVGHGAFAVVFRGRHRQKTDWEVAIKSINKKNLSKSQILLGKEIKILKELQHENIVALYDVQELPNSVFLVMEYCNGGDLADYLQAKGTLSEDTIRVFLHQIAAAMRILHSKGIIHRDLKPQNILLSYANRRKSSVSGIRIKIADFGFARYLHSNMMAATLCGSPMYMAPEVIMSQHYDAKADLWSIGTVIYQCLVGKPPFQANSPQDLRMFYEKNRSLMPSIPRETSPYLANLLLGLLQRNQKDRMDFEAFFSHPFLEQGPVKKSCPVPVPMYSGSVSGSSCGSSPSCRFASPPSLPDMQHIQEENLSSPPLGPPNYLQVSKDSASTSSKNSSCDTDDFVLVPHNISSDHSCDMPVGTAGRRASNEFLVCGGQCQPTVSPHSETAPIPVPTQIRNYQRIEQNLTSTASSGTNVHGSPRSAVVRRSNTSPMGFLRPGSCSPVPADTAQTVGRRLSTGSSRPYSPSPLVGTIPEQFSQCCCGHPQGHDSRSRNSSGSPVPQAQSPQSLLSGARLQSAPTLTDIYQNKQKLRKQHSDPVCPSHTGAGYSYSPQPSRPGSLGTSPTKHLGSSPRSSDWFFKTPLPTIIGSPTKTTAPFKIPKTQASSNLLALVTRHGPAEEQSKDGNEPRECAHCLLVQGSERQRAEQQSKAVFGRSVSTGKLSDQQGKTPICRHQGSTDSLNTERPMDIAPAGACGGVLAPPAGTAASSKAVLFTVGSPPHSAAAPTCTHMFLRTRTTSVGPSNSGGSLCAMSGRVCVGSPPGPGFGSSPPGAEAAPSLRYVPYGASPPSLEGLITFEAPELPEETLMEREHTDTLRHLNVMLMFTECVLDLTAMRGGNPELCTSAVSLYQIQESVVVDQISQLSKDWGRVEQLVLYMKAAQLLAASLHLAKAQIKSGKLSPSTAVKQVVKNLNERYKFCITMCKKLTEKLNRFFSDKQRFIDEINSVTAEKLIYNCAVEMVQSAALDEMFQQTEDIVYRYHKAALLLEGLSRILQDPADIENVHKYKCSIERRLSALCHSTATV
Sequence of ACVR2A (human) (P27037 whole entry, looked up): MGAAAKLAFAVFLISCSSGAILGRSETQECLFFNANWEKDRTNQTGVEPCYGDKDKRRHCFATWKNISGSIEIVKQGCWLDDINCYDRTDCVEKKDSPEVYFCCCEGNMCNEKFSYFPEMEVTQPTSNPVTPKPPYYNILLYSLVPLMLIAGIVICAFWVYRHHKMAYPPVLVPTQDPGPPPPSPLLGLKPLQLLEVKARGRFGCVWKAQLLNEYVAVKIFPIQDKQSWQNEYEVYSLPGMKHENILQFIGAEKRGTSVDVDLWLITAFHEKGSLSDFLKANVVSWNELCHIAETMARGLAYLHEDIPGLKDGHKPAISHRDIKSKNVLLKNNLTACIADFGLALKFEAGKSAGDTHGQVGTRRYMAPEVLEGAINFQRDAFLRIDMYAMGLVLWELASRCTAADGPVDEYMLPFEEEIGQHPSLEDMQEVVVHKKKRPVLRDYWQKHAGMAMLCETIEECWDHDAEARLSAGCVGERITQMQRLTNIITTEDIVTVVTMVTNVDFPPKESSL
Sequence of DDR2 (human) (Q16832 whole entry, looked up): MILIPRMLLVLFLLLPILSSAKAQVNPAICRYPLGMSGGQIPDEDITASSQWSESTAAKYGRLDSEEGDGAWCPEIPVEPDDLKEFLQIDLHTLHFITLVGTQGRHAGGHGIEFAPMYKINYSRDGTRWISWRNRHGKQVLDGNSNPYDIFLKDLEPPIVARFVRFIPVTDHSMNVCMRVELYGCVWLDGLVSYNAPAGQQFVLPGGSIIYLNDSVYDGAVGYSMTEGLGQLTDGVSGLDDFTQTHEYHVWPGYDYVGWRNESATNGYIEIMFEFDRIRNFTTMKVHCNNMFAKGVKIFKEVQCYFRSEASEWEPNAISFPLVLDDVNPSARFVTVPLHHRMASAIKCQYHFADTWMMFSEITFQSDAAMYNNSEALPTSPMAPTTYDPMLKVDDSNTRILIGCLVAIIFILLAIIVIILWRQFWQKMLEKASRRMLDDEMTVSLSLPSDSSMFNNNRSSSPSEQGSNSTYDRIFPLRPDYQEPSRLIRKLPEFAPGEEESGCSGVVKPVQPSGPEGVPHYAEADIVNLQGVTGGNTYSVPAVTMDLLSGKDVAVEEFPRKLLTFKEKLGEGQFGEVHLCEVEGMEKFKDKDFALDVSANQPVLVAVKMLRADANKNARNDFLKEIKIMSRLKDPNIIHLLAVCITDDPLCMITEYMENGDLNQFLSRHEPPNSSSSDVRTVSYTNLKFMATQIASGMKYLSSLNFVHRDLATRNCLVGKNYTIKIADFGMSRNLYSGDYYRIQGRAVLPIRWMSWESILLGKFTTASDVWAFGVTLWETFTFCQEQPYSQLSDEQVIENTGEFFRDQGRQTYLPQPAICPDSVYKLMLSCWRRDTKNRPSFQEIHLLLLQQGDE
Sequence of CDC2L2 (human) (Q9UQ88 whole entry, looked up): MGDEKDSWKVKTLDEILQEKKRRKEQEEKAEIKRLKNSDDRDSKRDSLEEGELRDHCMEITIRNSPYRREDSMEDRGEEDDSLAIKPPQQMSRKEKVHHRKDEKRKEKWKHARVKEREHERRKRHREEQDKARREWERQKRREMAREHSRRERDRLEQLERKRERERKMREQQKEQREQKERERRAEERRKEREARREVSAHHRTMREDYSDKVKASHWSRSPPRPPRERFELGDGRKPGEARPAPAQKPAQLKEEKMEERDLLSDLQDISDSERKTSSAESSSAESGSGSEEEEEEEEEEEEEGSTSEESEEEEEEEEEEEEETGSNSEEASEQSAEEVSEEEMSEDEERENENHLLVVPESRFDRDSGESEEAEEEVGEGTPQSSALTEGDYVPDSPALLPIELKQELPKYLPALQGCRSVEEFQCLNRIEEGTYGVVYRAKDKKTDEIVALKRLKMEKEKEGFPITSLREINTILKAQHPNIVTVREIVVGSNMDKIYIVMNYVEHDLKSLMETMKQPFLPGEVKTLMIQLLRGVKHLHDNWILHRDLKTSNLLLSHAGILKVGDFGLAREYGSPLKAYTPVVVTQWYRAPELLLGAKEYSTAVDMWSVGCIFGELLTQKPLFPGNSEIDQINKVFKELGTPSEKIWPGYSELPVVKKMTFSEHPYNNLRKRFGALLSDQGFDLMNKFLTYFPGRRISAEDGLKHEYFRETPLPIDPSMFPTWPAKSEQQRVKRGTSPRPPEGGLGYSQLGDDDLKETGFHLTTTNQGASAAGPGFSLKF
Sequence of FGR (human) (P09769 whole entry, looked up): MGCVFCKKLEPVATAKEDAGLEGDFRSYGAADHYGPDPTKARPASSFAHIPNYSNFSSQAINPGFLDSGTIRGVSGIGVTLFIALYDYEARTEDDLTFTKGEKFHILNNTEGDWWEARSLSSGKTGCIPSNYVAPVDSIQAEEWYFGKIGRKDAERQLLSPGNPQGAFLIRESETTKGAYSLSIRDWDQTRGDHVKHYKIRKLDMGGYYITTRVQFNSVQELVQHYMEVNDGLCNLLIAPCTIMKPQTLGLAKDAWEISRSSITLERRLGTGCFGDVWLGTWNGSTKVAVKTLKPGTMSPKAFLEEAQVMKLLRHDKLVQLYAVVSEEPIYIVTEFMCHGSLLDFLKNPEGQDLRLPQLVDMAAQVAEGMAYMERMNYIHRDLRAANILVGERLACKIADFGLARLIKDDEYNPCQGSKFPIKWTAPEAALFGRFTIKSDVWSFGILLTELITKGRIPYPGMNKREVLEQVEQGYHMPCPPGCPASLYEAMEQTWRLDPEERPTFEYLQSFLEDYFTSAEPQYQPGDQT
Sequence of LATS1 (human) (O95835 whole entry, looked up): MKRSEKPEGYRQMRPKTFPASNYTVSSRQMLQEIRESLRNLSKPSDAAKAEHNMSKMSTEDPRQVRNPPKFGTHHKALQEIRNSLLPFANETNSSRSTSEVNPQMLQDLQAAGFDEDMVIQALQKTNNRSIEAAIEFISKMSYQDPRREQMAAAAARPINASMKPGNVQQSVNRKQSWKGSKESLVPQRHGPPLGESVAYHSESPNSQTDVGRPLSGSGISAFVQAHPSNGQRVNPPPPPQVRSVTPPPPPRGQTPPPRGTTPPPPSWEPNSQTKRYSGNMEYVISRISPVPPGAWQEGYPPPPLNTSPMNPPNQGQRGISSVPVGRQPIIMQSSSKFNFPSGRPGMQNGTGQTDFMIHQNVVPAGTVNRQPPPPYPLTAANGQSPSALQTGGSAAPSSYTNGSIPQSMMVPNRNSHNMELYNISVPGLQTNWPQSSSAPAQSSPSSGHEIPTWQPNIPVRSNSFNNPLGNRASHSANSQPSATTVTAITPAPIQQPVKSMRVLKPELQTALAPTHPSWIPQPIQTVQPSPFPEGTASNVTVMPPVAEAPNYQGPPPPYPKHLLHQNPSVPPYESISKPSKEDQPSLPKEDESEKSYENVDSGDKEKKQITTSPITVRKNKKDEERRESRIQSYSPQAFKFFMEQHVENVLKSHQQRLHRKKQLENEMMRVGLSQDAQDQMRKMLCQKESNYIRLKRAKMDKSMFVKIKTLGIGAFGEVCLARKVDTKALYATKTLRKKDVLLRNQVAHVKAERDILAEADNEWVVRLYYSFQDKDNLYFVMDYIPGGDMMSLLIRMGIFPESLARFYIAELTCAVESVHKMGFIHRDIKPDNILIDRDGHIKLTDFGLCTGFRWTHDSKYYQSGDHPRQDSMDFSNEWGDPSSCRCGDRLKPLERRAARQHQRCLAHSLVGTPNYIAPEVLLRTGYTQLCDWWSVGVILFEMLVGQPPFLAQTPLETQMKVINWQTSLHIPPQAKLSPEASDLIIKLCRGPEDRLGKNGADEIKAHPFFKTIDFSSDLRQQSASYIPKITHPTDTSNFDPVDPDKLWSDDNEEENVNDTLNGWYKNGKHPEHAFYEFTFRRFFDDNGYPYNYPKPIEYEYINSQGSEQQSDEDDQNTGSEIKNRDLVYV

| Compound | kinase still bound, per cent of control (ACVR2A (human)) | kinase still bound, per cent of control (ADCK3 (human)) | kinase still bound, per cent of control (AKT2 (human)) | kinase still bound, per cent of control (AURKB (human)) | kinase still bound, per cent of control (CAMK2B (human)) | kinase still bound, per cent of control (CDC2L2 (human)) | kinase still bound, per cent of control (CDC42BPB (human)) | kinase still bound, per cent of control (CDK3 (human)) | kinase still bound, per cent of control (CLK2 (human)) | kinase still bound, per cent of control (DAPK2 (human)) | kinase still bound, per cent of control (DDR2 (human)) | kinase still bound, per cent of control (DYRK1B (human)) | kinase still bound, per cent of control (ERBB2 (human)) | kinase still bound, per cent of control (ERBB4 (human)) | kinase still bound, per cent of control (FGFR3 (human)) | kinase still bound, per cent of control (FGR (human)) | kinase still bound, per cent of control (FRK (human)) | kinase still bound, per cent of control (HIPK1 (human)) | kinase still bound, per cent of control (LATS1 (human)) | kinase still bound, per cent of control (LIMK2 (human)) | also measured |
| --- | --- | --- | --- | --- | --- | --- | --- | --- | --- | --- | --- | --- | --- | --- | --- | --- | --- | --- | --- | --- | --- |
| N#Cc1c(NC(=O)c2cccc3ccccc23)sc2c1CCCC2 | 69% | 100% | 100% | 94% | 90% | 100% | 80% | 97% | 87% | 91% | 100% | 89% | 87% | 100% | 100% | 100% | 58% | 91% | 93% | 100% | kinase still bound, per cent of control (MAP3K5 (human)): 94%; kinase still bound, per cent of control (MAPK1 (human)): 89%; kinase still bound, per cent of control (MAPK14 (human)): 100%; kinase still bound, per cent of control (MAPK15 (human)): 64%; kinase still bound, per cent of control (MAPKAPK5 (human)): 100%; kinase still bound, per cent of control (MST4 (human)): 79%; kinase still bound, per cent of control (PHKG1 (human)): 100%; kinase still bound, per cent of control (PIK3CD (human)): 100%; kinase still bound, per cent of control (PKN2 (human)): 81%; kinase still bound, per cent of control (PRKD1 (human)): 100%; kinase still bound, per cent of control (PRKG1 (human)): 88%; kinase still bound, per cent of control (RET (human)): 94%; kinase still bound, per cent of control (RPS6KA6 KD1 (human)): 70%; kinase still bound, per cent of control (RPS6KA6 KD2 (human)): 77%; kinase still bound, per cent of control (SRMS (human)): 84%; kinase still bound, per cent of control (SRPK3 (human)): 100%; kinase still bound, per cent of control (TGFBR1 (human)): 100%; kinase still bound, per cent of control (TLK2 (human)): 100%; kinase still bound, per cent of control (ULK2 (human)): 98%; kinase still bound, per cent of control (ULK3 (human)): 94% |
| C=CC(=O)Nc1cc(NC(=O)c2ccc(C)c(NC(=O)c3ccno3)c2)cc(C(F)(F)F)c1 | 100% | 100% | 100% | 100% | 100% | 94% | 91% | 97% | 80% | 97% | 40% | 95% | 100% | 100% | 97% | 63% | 12% | 97% | 100% | 96% | kinase still bound, per cent of control (MAP3K5 (human)): 100%; kinase still bound, per cent of control (MAPK1 (human)): 100%; kinase still bound, per cent of control (MAPK14 (human)): 0.5%; kinase still bound, per cent of control (MAPK15 (human)): 100%; kinase still bound, per cent of control (MAPKAPK5 (human)): 83%; kinase still bound, per cent of control (MST4 (human)): 91%; kinase still bound, per cent of control (PHKG1 (human)): 92%; kinase still bound, per cent of control (PIK3CD (human)): 100%; kinase still bound, per cent of control (PKN2 (human)): 100%; kinase still bound, per cent of control (PRKD1 (human)): 100%; kinase still bound, per cent of control (PRKG1 (human)): 100%; kinase still bound, per cent of control (RET (human)): 96%; kinase still bound, per cent of control (RPS6KA6 KD1 (human)): 86%; kinase still bound, per cent of control (RPS6KA6 KD2 (human)): 79%; kinase still bound, per cent of control (SRMS (human)): 77%; kinase still bound, per cent of control (SRPK3 (human)): 100%; kinase still bound, per cent of control (TGFBR1 (human)): 96%; kinase still bound, per cent of control (TLK2 (human)): 100%; kinase still bound, per cent of control (ULK2 (human)): 100%; kinase still bound, per cent of control (ULK3 (human)): 97% |
